The values below come from PubChem BioAssay (NCI).

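Tested at 5 concentrations; 48 h exposure; 96-well plates; endpoints linearly interpolated, else capped at highest concentration. Here, GI50 denotes the concentration required for 50% inhibition of growth. TGI marks complete inhibition of growth.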

Test systems include PC-3 prostate; UO-31 renal; HL-60(TB) leukemia; HCT-15 colon; DU-145 prostate; SNB-75 CNS; HCC-2998 colon; OVCAR-3 ovarian; M14 melanoma; EKVX NSCLC.
Common to all, as to experiment: inhibition of tumour cell growth, NCI panel, 48 h

`COC(=O)c1cc2ccccc2c2c3c(ccc12)OCO3`: the GI50 was 67.4 µM with PC-3 prostate; 224 µM in the experiment on UO-31 renal; 137 µM with HCT-15 colon; 109 µM in the experiment on DU-145 prostate; 12.2 µM in the experiment on SNB-75 CNS; 562 µM with HCC-2998 colon. Also, the results for the GI50 in the experiment with OVCAR-3 ovarian and in the experiment on M14 melanoma were 68.7 µM and 474 µM, respectively. Besides, the TGI is above 1000 µM in the experiment with PC-3 prostate; above 1000 µM with UO-31 renal; above 1000 µM in the experiment on HL-60(TB) leukemia; above 1000 µM in the experiment on HCT-15 colon; above 1000 µM in the experiment on DU-145 prostate; 48.1 µM with SNB-75 CNS. In addition, the TGI with HCC-2998 colon is above 1000 µM; in the experiment with OVCAR-3 ovarian, 700 µM; in the experiment on M14 melanoma, above 1000 µM.
Turning to `CC(C)(C)c1[nH]nc2c1C(c1cc3ccccc3[nH]c1=O)Nc1cc(C(=O)OCc3ccccc3)ccc1N2` (stereo unspecified), the GI50 with PC-3 prostate is 2.7 µM; in the experiment on UO-31 renal, 3.42 µM; with HL-60(TB) leukemia, 3.66 µM; in the experiment with HCT-15 colon, 4.65 µM; with DU-145 prostate, 6.04 µM; in the experiment on SNB-75 CNS, 4.37 µM. Besides, the GI50 is 4.08 µM with HCC-2998 colon and 4.28 µM in the experiment on M14 melanoma. Besides, the TGI in the experiment with PC-3 prostate, in the experiment on UO-31 renal, with HL-60(TB) leukemia, in the experiment with HCT-15 colon, in the experiment on DU-145 prostate and in the experiment on SNB-75 CNS was above 100 µM in each case. Besides, the TGI in the experiment on HCC-2998 colon and with M14 melanoma was above 100 µM in each case.
Turning to `CCOC(=O)c1cc2c(n1Cc1cc(OC)c(OC)c(OC)c1)-c1oncc1CCC2`, the GI50 was 0.209 µM with PC-3 prostate; 0.303 µM with UO-31 renal; 0.221 µM in the experiment on HL-60(TB) leukemia; 0.186 µM in the experiment with HCT-15 colon; 0.302 µM with DU-145 prostate; 0.111 µM with SNB-75 CNS. Moreover, the GI50 was 0.335 µM in the experiment on HCC-2998 colon and 0.0901 µM with OVCAR-3 ovarian. In addition, the TGI in the experiment with PC-3 prostate was above 65.3 µM; in the experiment with UO-31 renal it was above 67.4 µM; in the experiment on HL-60(TB) leukemia, 0.765 µM; with HCT-15 colon, above 100 µM; with DU-145 prostate, 6.87 µM; in the experiment with SNB-75 CNS, above 61.7 µM. Besides, the TGI is 5.17 µM in the experiment with HCC-2998 colon and 0.399 µM in the experiment with OVCAR-3 ovarian.
Take `C=C1c2ccoc2C[C@H]2[C@H]1CC[C@@]1(O)[C@@](C)(C(=O)OC)CCC[C@]21C`: the GI50 is 27.6 µM with PC-3 prostate; 37 µM with EKVX NSCLC; 33.9 µM with UO-31 renal; 24.9 µM in the experiment on HCT-15 colon; 38.4 µM with DU-145 prostate; above 100 µM in the experiment with SNB-75 CNS. In addition, the results for the GI50 with HCC-2998 colon, in the experiment on OVCAR-3 ovarian and in the experiment on M14 melanoma were 29.4 µM, 17.4 µM and 29.3 µM, respectively. For the same molecule, the TGI with PC-3 prostate is above 100 µM; with EKVX NSCLC it was above 100 µM; in the experiment with UO-31 renal, above 100 µM; in the experiment with HCT-15 colon, 64.9 µM; in the experiment on DU-145 prostate, above 100 µM; with SNB-75 CNS it was above 100 µM. Also, the TGI in the experiment with HCC-2998 colon turned out to be 71 µM; in the experiment on OVCAR-3 ovarian, 43.3 µM; with M14 melanoma, 82.6 µM.
On to `CCN1C(=O)N(CC)C2C1NN=c1s/c(=C\c3ccccn3)c(=O)n12` (stereo unspecified), for which the GI50 was 1.79 µM with PC-3 prostate; 4.45 µM with EKVX NSCLC; 2.51 µM in the experiment on UO-31 renal; 0.487 µM with HL-60(TB) leukemia; 0.558 µM with HCT-15 colon; 2.4 µM with DU-145 prostate. Moreover, the GI50 was 3.17 µM in the experiment on HCC-2998 colon and 0.403 µM with OVCAR-3 ovarian. In addition, the TGI is above 100 µM with PC-3 prostate; above 100 µM in the experiment with EKVX NSCLC; above 100 µM in the experiment on UO-31 renal; 3.42 µM in the experiment with HL-60(TB) leukemia; above 100 µM in the experiment on HCT-15 colon; above 100 µM in the experiment with DU-145 prostate. For the same molecule, the values for the TGI with HCC-2998 colon and with OVCAR-3 ovarian were above 100 µM and 2.2 µM, respectively.
`Nc1c(C(=O)c2cccc(-c3cccnc3)c2)cnn1-c1ccc(F)cc1F`: the GI50 was 5.12 µM in the experiment with PC-3 prostate; 5.56 µM with UO-31 renal; 5.76 µM with HL-60(TB) leukemia; 1.11 µM in the experiment on HCT-15 colon; 12 µM in the experiment on DU-145 prostate; 5.33 µM in the experiment with SNB-75 CNS. Moreover, the GI50 with HCC-2998 colon was 9.43 µM; in the experiment on OVCAR-3 ovarian, 3.93 µM; in the experiment with M14 melanoma it was 2.71 µM. Besides, the TGI with PC-3 prostate, in the experiment on UO-31 renal, in the experiment on HL-60(TB) leukemia, with HCT-15 colon, in the experiment with DU-145 prostate and in the experiment with SNB-75 CNS was above 25 µM throughout. For the same molecule, the TGI in the experiment with HCC-2998 colon, with OVCAR-3 ovarian and in the experiment on M14 melanoma was above 25 µM each time.
Regarding `COc1ccc(N(/C=C/C(=O)C(F)(F)F)CC(=O)c2ccc(F)cc2)cc1`, the GI50 with PC-3 prostate was 23.1 µM; in the experiment on EKVX NSCLC, 25.4 µM; with UO-31 renal, 36.3 µM; with HCT-15 colon it was 16 µM; in the experiment with DU-145 prostate it was 36.2 µM; with SNB-75 CNS it was above 100 µM. Further, the values for the GI50 in the experiment on HCC-2998 colon, with OVCAR-3 ovarian and with M14 melanoma were 21.4 µM, 21.2 µM and 20.6 µM, respectively. For the same molecule, the TGI was 85.7 µM in the experiment on PC-3 prostate; above 100 µM in the experiment on EKVX NSCLC; above 100 µM in the experiment with UO-31 renal; 38.7 µM in the experiment on HCT-15 colon; above 100 µM in the experiment on DU-145 prostate; above 100 µM with SNB-75 CNS. For the same molecule, the TGI in the experiment on HCC-2998 colon turned out to be 38.9 µM; in the experiment on OVCAR-3 ovarian, 48.6 µM; in the experiment on M14 melanoma it was 56.7 µM.
Regarding `Cc1cn2c(/C=C3/C(=O)Nc4ccc(O)cc43)c(C)nc2s1`, the GI50 with PC-3 prostate was 2.11 µM; in the experiment on EKVX NSCLC it was 12.9 µM; in the experiment on UO-31 renal, 26.5 µM; in the experiment with HCT-15 colon, 3.78 µM; with DU-145 prostate it was 6.43 µM; in the experiment with SNB-75 CNS, 4.61 µM. The GI50 is 1.76 µM in the experiment with HCC-2998 colon, 0.486 µM with OVCAR-3 ovarian and 2.29 µM with M14 melanoma. The TGI in the experiment on PC-3 prostate is 37.2 µM; in the experiment with EKVX NSCLC, above 100 µM; with UO-31 renal it was above 100 µM; in the experiment with HCT-15 colon, above 58.5 µM; in the experiment on DU-145 prostate, above 100 µM; in the experiment with SNB-75 CNS it was above 100 µM. Also, the figures for the TGI with HCC-2998 colon, with OVCAR-3 ovarian and in the experiment on M14 melanoma were 5.01 µM, above 22.6 µM and above 39.1 µM, respectively.
Regarding `O=S(=O)(c1cccc2c(I)cccc12)N1CCCNCC1`, the GI50 with PC-3 prostate is 14.9 µM; in the experiment on EKVX NSCLC it was 19.8 µM; with UO-31 renal it was 15.6 µM; in the experiment on HL-60(TB) leukemia, 14.2 µM; in the experiment with HCT-15 colon, 17.9 µM; with DU-145 prostate, 15.8 µM. Further, the values for the GI50 in the experiment on HCC-2998 colon, in the experiment with OVCAR-3 ovarian and in the experiment with M14 melanoma were 17.4 µM, 18.7 µM and 19.8 µM, respectively. The TGI with PC-3 prostate came to 32.8 µM; in the experiment with EKVX NSCLC, 39.7 µM; in the experiment with UO-31 renal it was 34 µM; in the experiment with HL-60(TB) leukemia, 43.4 µM; in the experiment on HCT-15 colon, 34.7 µM; in the experiment on DU-145 prostate it was 36.3 µM. Besides, the TGI with HCC-2998 colon was 35.1 µM; in the experiment with OVCAR-3 ovarian it was 43.3 µM; with M14 melanoma it was 39.2 µM.
With `Nc1c(C(=O)c2cccc(C#CCO)c2)cnn1-c1ccc(F)cc1`, the GI50 in the experiment on PC-3 prostate, in the experiment on UO-31 renal, in the experiment with HL-60(TB) leukemia, in the experiment with HCT-15 colon, in the experiment with DU-145 prostate and in the experiment on SNB-75 CNS was above 25 µM each time. Besides, the GI50 in the experiment with HCC-2998 colon, in the experiment with OVCAR-3 ovarian and in the experiment with M14 melanoma was above 25 µM in each case. The TGI in the experiment with PC-3 prostate, with UO-31 renal, in the experiment with HL-60(TB) leukemia, with HCT-15 colon, in the experiment with DU-145 prostate and in the experiment on SNB-75 CNS was above 25 µM throughout. The TGI in the experiment with HCC-2998 colon, in the experiment on OVCAR-3 ovarian and in the experiment with M14 melanoma was above 25 µM in each case.
For `CCOC(=O)C1CCCCN1C(=O)c1ccc(Nc2cnc3cc(C(F)(F)F)ccc3n2)cc1` (stereo unspecified), the GI50 in the experiment with PC-3 prostate is 11.5 µM; with EKVX NSCLC it was 36 µM; in the experiment on UO-31 renal, 14.2 µM; in the experiment with HL-60(TB) leukemia, 19.1 µM; in the experiment with HCT-15 colon, 17.2 µM; in the experiment with DU-145 prostate, 20.5 µM. The GI50 in the experiment on OVCAR-3 ovarian was 15.5 µM; in the experiment with M14 melanoma, 14.9 µM. Besides, the TGI is 26.9 µM in the experiment with PC-3 prostate; above 100 µM in the experiment with EKVX NSCLC; 33.2 µM with UO-31 renal; above 100 µM in the experiment with HL-60(TB) leukemia; 42.6 µM with HCT-15 colon; 92.2 µM in the experiment on DU-145 prostate. In addition, the TGI in the experiment on OVCAR-3 ovarian was found to be 31.6 µM; in the experiment with M14 melanoma it was 29 µM.
Take `COc1ccccc1CNCCCN1C(=O)c2ccc3c4c(ccc(c24)C1=O)C(=O)N(CCCN)C3=O`: the GI50 in the experiment on PC-3 prostate is 1.68 µM; in the experiment on UO-31 renal it was 1.96 µM; in the experiment on HL-60(TB) leukemia, 0.826 µM; in the experiment with HCT-15 colon it was 1.41 µM; in the experiment with DU-145 prostate, 1.38 µM; with SNB-75 CNS, 1.36 µM. Besides, the GI50 is 1.8 µM with HCC-2998 colon, 0.329 µM in the experiment with OVCAR-3 ovarian and 0.833 µM in the experiment with M14 melanoma. In addition, the TGI with PC-3 prostate was found to be 4.95 µM; in the experiment on UO-31 renal it was 5.35 µM; in the experiment with HL-60(TB) leukemia, 2.54 µM; in the experiment on HCT-15 colon, 3.67 µM; with DU-145 prostate it was 2.71 µM; in the experiment on SNB-75 CNS, 2.72 µM. The TGI worked out at 3.58 µM in the experiment on HCC-2998 colon, 1.06 µM in the experiment on OVCAR-3 ovarian and 2.34 µM with M14 melanoma.
As for `O=c1cc(-c2cccnc2)[nH]c2cc3c(cc12)OCO3`, the TGI in the experiment with PC-3 prostate is above 100 µM; in the experiment on UO-31 renal, above 100 µM; in the experiment with HL-60(TB) leukemia, 31.9 µM; in the experiment with HCT-15 colon, above 64.3 µM; in the experiment on DU-145 prostate it was above 100 µM; in the experiment on SNB-75 CNS, 27.1 µM. Moreover, the TGI with HCC-2998 colon was 19.4 µM; in the experiment on OVCAR-3 ovarian it was above 20.7 µM; in the experiment with M14 melanoma, above 100 µM.
